Results as given in patent publication US10857107B2, “Cannabinoid-containing complex mixtures for the treatment of mast cell-associated or basophil-mediated inflammatory disorders” (priority 2017, dated 2020).
“Also recorded” adds a separate entry of the source. Read-outs that look alike come from different tables or passages of the source.

Key:
Format in all cases: cell-based
[1] = test system: mast cells (from a mast cell line, RBL2H3); experiment: FcεRI ligation-induced mast cell degranulation measured by histamine release (ELISA); settings: nanomolar concentration; compared to PMA/Iomomycin (100%)
[2] = test system: RBL2H3 cells; experiment: FcεRI-induced degranulation with CBG/CBD, FAAH inhibitor or PDEI pre-incubation (beta-hexoaseaminidase assay); settings: for Outcome (normalized cellular degranulation response): T60
Experimental: Experiments were conducted to test the hypothesis that CBG-mediated anti-inflammatory effects, i.e., suppression of degranulation, is by increase of intracellular cAMP and the increase of intracellular cAMP results from CBG's antagonizing effects on the interaction between AEA and CB1/2 receptors. To test this hypothesis, the ability of CBG to decrease FcεRI-induced degranulation was assessed. Mast cells were incubated with or without CBG before addition of FcεRI. An FAAH inhibitor was used as a control to increase the levels of AEA and thus saturate the CB1/2 receptors, resulting in decreased cAMP. PDEI was used as a control to directly increase the levels of intracellular cAMP. Cells were also incubated with CBD alone or CBG and CBD to assess the synergistic effects of CBD and CBG.
RBL2H3 cells were pre-incubated for 3 h at 37° C. at with (i) 10 μM FAAH inhibitor LY2183240/PF750 cocktail, (ii) 10 μM PDEI 3-isobutyl-1-methylxanthine (IBMX), or (iii) vehicle (Table 3). Vehicle or 300 nM CBG (30% of the CBG dose previously determined to cause maximal enhancement of the suppressive effect of CBD) was applied to Groups D-F and J-I, the first—one hour prior to FcεRI-induction—and the second—two hour prior to FcεRI-induction (T0, antigen), and remained throughout the course of the experiment. Vehicle was DMSO, methanol, or PBS. 10 μM CBD was additionally added to Groups D-I, 20 minutes prior to FcεRI-induction of degranulation. Cellular degranulation was measured using a beta-hexoaseaminidase assay at 1 h post-induction (T60). Replicates were done in triplicate and averaged. Degranulation of each of the groups was normalized to Row L. The outcome data presented in the column “Outcome” of Table 3 is the normalized cellular degranulation response of each averaged group. Group ABC was p<0.005 relative to Group LMN. Group GHI was p<0.005 relative to Group LMN. Row F had no significant difference relative to Row D. Row E was p<0.05 relative to Row D.

[3] = test system: mast cells (from a mast cell line, RBL2H3); experiment: FcεRI ligation-induced mast cell degranulation measured by histamine release (ELISA); settings: for inhibition at 10 µM: Rattus norvegicus; for anti-inflammatory effects on mast cell degranulation (in words): individual compound alone, 10 μM, histamine release; for increase of FcεRI ligation-induced histamine secretion: compound alone at 10 μM (FIG. 5)
Experimental: For the FcεRI assay, mast cells (from a mast cell line, RBL2H3) were plated in cluster plates at 5×10^4 cells/well. Monolayers were washed and incubated in 200 μl Tyrode's buffer. The mast cells were then primed with 1 μg/ml IgE-anti-DNP antibodies for 16 hours. The cells were then washed three times and a cannabinoid-containing complex mixture, prepared as above-described, was applied. The tested complex mixtures were applied in an amount calculated to expose the mast cells to 10 μM of cannabidiol and 10 μM of each minor cannabinoid or terpene component. Control for maximal FcεRI ligation-induced degranulation included no cannabinoid-containing complex mixture.
After 10 minutes, 250 ng/ml of DNP-BSA was applied to ligate FcεRI molecules on the mast cell surface.
Mast cell culture medium was collected 60 minutes after exposure to DNP-BSA with or without a tested cannabinoid-containing complex mixture. Degranulation of the mast cells was tested by measuring histamine release using a commercial ELISA kit (e.g., histamine ELISA kit available from ENZO Life Sciences, Inc., Rocky Mountain Diagnostics, Inc., etc.).
Mast cell degranulation for each tested complex mixture was measured based on the amount of histamine release and is presented as % histamine release compared to histamine release in response to PMA/Ionomycin (100%). Each complex mixture was tested in twenty-four (8×3) independent experiments and data from the twenty four independent experiments were averaged. The averaged values are presented as a bar for each complex mixture in FIG. 2. Standard deviations are also provided in the graph.
The % degranulation in response to each cannabinoid-containing complex mixture was used to calculate % inhibition of degranulation by subtracting the % degranulation from 100%.
Anti-inflammatory effects of (i) each major cannabinoid, (ii) each minor cannabinoid, and (iii) each selected terpene, were assessed based on their inhibition of FcεRI-induced mast cell degranulation by measuring histamine release as described above.
Their anti-inflammatory effects are presented as % reduction of histamine release in the presence of the tested compound compared to the histamine release in the presence of PMA/Ionomycin (0%). Standard deviations of the experimental data are also provided in the graphs.

[4] = test system: Mast cells; experiment: FcεRI-induced mast cell degranulation, beta-hexoseaminidase assay (dose response); settings: for change of anti-inflammatory effects when 10 μM cannabigerol was added: various concentrations (1 nM to 50 μM) plus 10 μM cannabigerol; for IC50: read-out: IC50 of inhibitory effects on FcεRI-induced degranulation
Experimental: As provided in FIG. 12, anti-inflammatory effects of limonene, and cannabidiol (CBD), were assessed at 11 different concentrations (x-axis: 0, 1, 5, 10, 50, 100, 500, 1000, 5000, 10000, 50000 nM) in the presence (a line with triangles and a line with circles, respectively) or absence of 10 μM cannabigerol (CBG-a line with diamonds and a line with exes, respectively). In this experiment, anti-inflammatory effects of the mixtures were based on effects on mast cell degranulation, measured using a beta-hexoseaminidase assay.
Beta-hexoseaminidase assays: Mast cells were primed with anti-DNPA IgE, and then stimulated with DNP-BSA in the presence of absence of a tested composition as described in Example 2. Mast cell culture medium was collected 60 minutes after exposure to FcεRI and incubated for 45 minutes at 37° C. 25 μl of its supernatant was removed, clarified by microcentrifugation, and transferred to a 96 well plate containing 100 μl per well 1 mM p-N-acetyl glucosamine (Sigma) in 0.05 M citrate buffer pH 4.5. After incubating the mixture for 1 hour at 37° C., the reaction was quenched by addition of 100 μl per well 0.2 M glycine, pH 9.0. Beta-hexosaminidase levels were read as OD at 405 nm.

[5] = test system: Mast cells; experiment: Histamine release with cannabidivarin, with or without FcεRI ligation (time course)
Experimental: FIG. 7A provides data from Example 3 illustrating pro-inflammatory effects of cannabidivarin. […] The X-axis represents minutes after application of the FcεRI crosslinking agonist, and the y-axis represents the amount of histamine release (pg/10 million cells). FIG. 7B compares histamine release (pg/10 million cells) measured 10 minutes after exposure to the FcεRI crosslinking agonist (left) or to cannabidivarin without the FcεRI crosslinking agonist (right).
The x-axis represents minutes after application of BSA-DNP and y-axis represents the amount of histamine release (pg/10 million cells). Pro-inflammatory effects of cannabidivarin was even greater than effects of FcεRI ligation; histamine release in response to FcεRI ligation was about 220 pg/10 million cells after 10 minute exposure, while histamine release in response to cannabidivarin (without concurrent FcεRI ligation) was about 340 pg/10 million cells.

[6] = test system: RBL2H3 cells; experiment: Intracellular free calcium assay (Fluo-4); settings: external calcium 1 mM
Experimental: FIG. 16 provides data from Example 6 illustrating the intracellular free calcium measurements in the presence of external calcium (1 mM) in RBL2H3 cells stimulated in the absence (control vehicle) or presence of 1, 10, or 50 μM CBG. Ionomycin was used as a positive control. Stimuli were added at 20 s.
RBL2H3 cells were washed and incubated with 0.2 μM Fluo-4 for 30 minutes at 37° C. in a standard modified Ringer's solution (145 mM NaCl, 2.8 mM KC1, 10 mM CsCl, +/−1-10 mM CaCl2, 2 mM MgCl2, 10 mM glucose, 10 mM HEPES, pH 7.4, 330 mOsm). Cells were transferred to 96-well plates at 50,000 cells/well and stimulated with 1, 10, or 50 μM CBG. 500 nM ionomycin was used as positive control to induce calcium response. Calcium signals were acquired using a Flexstation 3 (Molecular Devices, Sunnydale, USA) for 3 min. Data was analyzed using SoftMax® Pro 5 (Molecular Devices).

[7] = Antigen at T0, only the named substance(s), otherwise vehicle, 300 nM CBG, 10 μM CBD, 10 μM LY2183240/PF750 or IBMX, normalized to Row L
[8] = RBL-2H3, read-out: % inhibition of FcεRI-induced degranulation (reduction of histamine secretion)
[9] = Antigen at T0, cells pre-incubated 3 h with 10 μM FAAH inhibitor LY2183240/PF750 cocktail, 300 nM CBG, 10 μM CBD
[10] = Antigen at T0, cells pre-incubated 3 h with 10 μM PDEI IBMX, 300 nM CBG, 10 μM CBD

CCCCCCC(C)(C)c1ccc([C@@H]2C[C@H](O)CC[C@H]2CCCO)c(O)c1 [CP55940]
suppression of histamine release of mast cells [1]: about 30%

CC(C)Cn1c(=O)n(C)c(=O)c2[nH]cnc21 [IBMX, 3-isobutyl-1-methylxanthine]
Outcome (normalized cellular degranulation response) [2, 7]: 0.34 | reduction of FcεRI-induced degranulation ([2]; alone, 10 μM, Row N): 3 fold | Outcome (normalized cellular degranulation response) ([2]; no Antigen (vehicle at T0), 10 μM pre-incubation 3 h): 0.06

CCCCCc1cc(O)c2c(c1)OC(C)(CCC=C(C)C)C=C2 (stereo not drawn) [cannabichromene]
inhibition at 10 µM [3, 8]: ≤ 20% | anti-inflammatory effects on mast cell degranulation (in words) [3]: almost no anti-inflammatory effects

C=C(C)[C@@H]1CCC(C)=C[C@H]1c1c(O)cc(CCCCC)cc1O [cannabidiol]
inhibition at 10 µM ([3]; RBL-2H3, read-out: % inhibition of FcεRI-induced degranulation (reduction of histamine secretion), individual compound alone at 10 μM): 23% | change of anti-inflammatory effects when 10 μM cannabigerol was added [4]: significantly enhanced their anti-inflammatory effects | Outcome (normalized cellular degranulation response) [2, 9]: 0.56 | Outcome (normalized cellular degranulation response) [2, 10]: 0.32 | Outcome (normalized cellular degranulation response) [2, 7]: 0.54

C=C(C)[C@@H]1CCC(C)=C[C@H]1c1c(O)cc(CCC)cc1O [cannabidivarin]
increase of FcεRI ligation-induced histamine secretion [3]: 26% | increase of FcεRI ligation-induced histamine secretion ([3]; listed as Cannabidivarin): more than 20% | histamine release ([5]; in response to cannabidivarin without concurrent FcεRI ligation, 10 minute exposure): about 340 pg/10 million cells | effect of pretreatment on FcεRI ligation-induced histamine release ([5]; pretreatment with 10 μM for 10 minutes before FcεRI ligation): significantly enhanced pro-inflammatory effects of FcεRI ligation; also recorded: further enhanced pro-inflammatory effects

CCCCCc1cc(O)c(C/C=C(\C)CCC=C(C)C)c(O)c1 [cannabigerol]
inhibition at 10 µM [3, 8]: ≤ 20% | anti-inflammatory effects on mast cell degranulation (in words) [3]: almost no anti-inflammatory effects | anti-inflammatory effects on mast cell degranulation (in words) ([3]; listed as Cannabigerol): does not have significant effects on mast cell degranulation | suppression of FcεRI ligation-induced degranulation ([4]; alone, at the highest concentration tested (50 μM)): less than 10% | Outcome (normalized cellular degranulation response) [2, 9]: 0.92 | Outcome (normalized cellular degranulation response) [2, 10]: 0.28 | Outcome (normalized cellular degranulation response) [2, 7]: 0.98 | effect on intracellular calcium ([6]; 50 μM): moderate increase in intracellular calcium | effect on intracellular calcium ([6]; lower doses (1 and 10 μM)): did not significantly alter the intracellular calcium

CCCCCc1cc(O)c2c(c1)OC(C)(C)c1ccc(C)cc1-2 [cannabinol]
inhibition at 10 µM [3, 8]: ≤ 20%

C=C(C)[C@H]1CC=C(C)CC1 [limonene]
% inhibition of FcεRI-induced degranulation (reduction of histamine secretion) ([3]; individual compound alone at 10 μM): 24% | IC50 ([4]; alone): ~0.48 µM | IC50 ([4]; in combination with 10 μM cannabigerol (CBG)): ~0.1 µM | change of anti-inflammatory effects when 10 μM cannabigerol was added [4]: significantly enhanced their anti-inflammatory effects

C=CC(C)(O)CCC=C(C)C (stereo not drawn) [linalool]
anti-inflammatory effects on mast cell degranulation (in words) [3]: almost no anti-inflammatory effects

C=CC(C)(O)CCC=C(C)CCC=C(C)C (stereo not drawn) [nerolidol]
anti-inflammatory effects on mast cell degranulation (in words) [3]: almost no anti-inflammatory effects

C/C(=C\CO)CCC[C@H](C)CCC[C@H](C)CCCC(C)C [phytol]
anti-inflammatory effects on mast cell degranulation (in words) [3]: almost no anti-inflammatory effects

CC1=CCC2CC1C2(C)C (stereo not drawn) [pinene]
anti-inflammatory effects on mast cell degranulation (in words) [3]: almost no anti-inflammatory effects
